SMILES strings stand for the structures.

One assay deals with T1, human Nox4 (Homo sapiens, UniProt Q9NPH5).
T1 construct: expressed in transfected cells; host or cells: T-REx-293 (hNOX4 T-REx-293), tetracycline-induced; membrane fraction
T1 sequence (Q9NPH5 1-578): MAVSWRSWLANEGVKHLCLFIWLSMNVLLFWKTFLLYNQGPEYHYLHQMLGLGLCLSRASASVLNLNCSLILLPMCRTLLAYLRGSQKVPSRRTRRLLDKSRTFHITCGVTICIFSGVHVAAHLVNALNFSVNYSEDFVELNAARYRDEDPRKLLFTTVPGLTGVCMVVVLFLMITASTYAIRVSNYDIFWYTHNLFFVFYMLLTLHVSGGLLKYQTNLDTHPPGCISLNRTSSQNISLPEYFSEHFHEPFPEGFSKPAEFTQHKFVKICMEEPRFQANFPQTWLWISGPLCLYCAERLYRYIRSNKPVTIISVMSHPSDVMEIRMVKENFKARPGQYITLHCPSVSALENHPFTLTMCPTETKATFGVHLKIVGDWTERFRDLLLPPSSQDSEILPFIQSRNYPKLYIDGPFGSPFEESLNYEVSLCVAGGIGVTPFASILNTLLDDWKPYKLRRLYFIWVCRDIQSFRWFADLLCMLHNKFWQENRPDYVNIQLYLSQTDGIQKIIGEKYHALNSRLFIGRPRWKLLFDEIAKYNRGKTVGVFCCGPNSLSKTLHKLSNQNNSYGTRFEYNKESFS
T1 sequence (P13498 2-195 partner limits assumed): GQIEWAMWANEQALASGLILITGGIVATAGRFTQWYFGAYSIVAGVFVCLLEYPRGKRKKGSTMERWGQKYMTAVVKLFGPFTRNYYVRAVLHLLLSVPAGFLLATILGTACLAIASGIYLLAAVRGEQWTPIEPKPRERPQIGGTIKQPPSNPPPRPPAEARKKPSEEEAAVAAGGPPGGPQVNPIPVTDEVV
Description: ROS production by membranes expressing human Nox4, cell-free Amplex Red assay. It counts as biochemical. Particulars: cell-free membranes, Amplex Red; Cheng-Prusoff; average of at least three experiments in triplicate; read-out: Ki hNox4. An excerpt:
(§1) The Nox4 activity of Nox4 inhibitors according to the invention may be tested for their activity in the inhibition or reduction of formation of reactive oxygen species (ROS) from oxygen in cell free assays. In order to fully characterise Nox4 inhibitors, Nox subunit-specific cell-free, membrane-based systems have been developed and specific recombinant proteins have been added to membranes heterologously over-expressing their specific iso form. Nox enzymes produce superoxide (O2.−) as primary product, however due to the high instability and reactivity of this molecule which dismutates naturally into hydrogen peroxide (H2O2), therefore, read-out techniques involving probes that do measure H2O2 were used (e.g. using Amplex Red as a probe in order to facilitate consistent and accurate measurements). The activity of the compounds is tested in the following cell free assay using the techniques described here below:
Transfected T-REx™-CHO cells (R718-07) purchased from Invitrogen and T-REx™-293 cell line expressing hNOX4 (hNOX4 T-REx™-293) (Serrander et al., 2007, Biochem. J., 406, 105-114) were cultured in […]. Both media were supplemented with 10% FBS, 2 mM glutamine, penicillin (100 U/ml) and streptomycin (100 μg/ml). Selection pressure was maintained by continuous inclusion of blasticidin (5 μg/ml), and/or G418 (0.25 mg/ml), and/or Hygromycin (0.25 mg/ml) and/or zeocin (0.025 mg/ml).
(§2) Human Nox1, Nox2, Nox4, and Nox5 expression were induced with Tetracycline (1 μg/ml) during 24 h prior to the membrane preparation Membranes from transfected cells overexpressing Nox1, Nox2, Nox4 or Nox5 were prepared as previously described in Palicz et al., 2001, J. Biol. Chem., 76, 3090-3097. After resuspension in sonication buffer (11% sucrose, 120 mM NaCl, 1 mM EGTA in PBS, pH 7.4 for Nox4- or NOX5-expressing cells) or in relax buffer (10 mM Pipes, 3 mM NaCl, 3.5 mM MgCl2, 0.1M KCl, pH 7.4), cells were broken by sonication and centrifuged (200 g, 10 min). The supernatant was layered onto a 17/40% (w/v) discontinuous sucrose gradient and centrifuged (150,000×g for 60 min). Membrane fractions were collected from the 17/40% interface and were stored at −80° C. Protein concentration was determined with the Bradford reagent.
(§3) Reactive Oxygen Species (ROS) production by membranes expressing either human Nox1, or human Nox2 or human Nox4 or human Nox5 or by xanthine/xanthine oxidase were measured using the Amplex Red (AR) method following a slightly modified version of the manufacturer's instruction manual (Invitrogen). Briefly, membranes or xanthine were incubated in PBS with Amplex Red, Horse Radish Peroxidase (HRP) and appropriated co-factors. ROS production was induced by addition of NADPH to NOX-expressing membrane or by addition of xanthine to xanthine oxidase. Non-specific signal was measured in the absence of membranes or in the absence of xanthine.
Antagonist activity of compounds was measured in the presence of increasing concentrations ranging from 1 nM to 100 μM. After an incubation of 20 min in a plate shaker and incubator (Titramax 1000, VWR) at 37° C. with weak agitation (300 rpm), ROS levels were measured for 10 min in a BMG Fluostar microplate reader with excitation and emission wavelengths of 544 nm and 590 nm respectively.
Data were analysed using Prism (GraphPad Software Inc., San Diego, Calif.). Ki values were calculated using the Cheng-Prusoff equation and represent the average of at least three individual experiments performed in triplicate (Table 1). Nox4 inhibition was compared to that measured for Simvastatin (Enzo Life Sciences, CAS Number 79902-63-9) using the method described in Example 1. Reactive Oxygen Species (ROS) production by membranes expressing human Nox4 was measured using the Amplex Red (AR).

The target in a further assay is T2, human Nox2 (Homo sapiens, UniProt P04839).
T2 construct: host or cells: T-REx-CHO (hNOX2 T-REx-CHO), tetracycline-induced; membrane fraction
T2 sequence (P04839 2-570 limits assumed): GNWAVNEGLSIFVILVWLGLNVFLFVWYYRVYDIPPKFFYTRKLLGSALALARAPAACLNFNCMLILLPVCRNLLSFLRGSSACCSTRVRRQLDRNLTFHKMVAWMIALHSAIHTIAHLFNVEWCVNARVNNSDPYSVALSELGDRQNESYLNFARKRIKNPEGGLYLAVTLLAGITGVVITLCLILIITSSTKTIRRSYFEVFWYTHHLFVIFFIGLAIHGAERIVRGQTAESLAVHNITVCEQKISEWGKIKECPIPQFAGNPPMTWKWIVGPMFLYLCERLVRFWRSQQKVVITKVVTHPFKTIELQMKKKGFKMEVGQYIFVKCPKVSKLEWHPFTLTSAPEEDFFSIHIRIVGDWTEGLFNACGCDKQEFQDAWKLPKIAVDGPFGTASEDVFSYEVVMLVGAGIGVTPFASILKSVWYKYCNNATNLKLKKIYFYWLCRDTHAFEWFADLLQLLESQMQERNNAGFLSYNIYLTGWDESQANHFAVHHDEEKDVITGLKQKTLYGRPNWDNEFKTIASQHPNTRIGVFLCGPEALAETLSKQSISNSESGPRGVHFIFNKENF
T2 sequence (P13498 2-195 partner limits assumed): T1 sequence (P13498 2-195 partner limits assumed)
Description: ROS production by membranes expressing human Nox2, cell-free Amplex Red assay. Particulars: cell-free membranes, Amplex Red; Cheng-Prusoff; average of at least three experiments in triplicate; read-out: Ki hNox2. Format: biochemical.
Source text: as §1
Human Nox1 (NM_007052.4), human NOX2 (NM_000397), and human NOX5 (NM_0245052244) cDNAs were cloned into the pcDNA5/TO (Invitrogen). Human p22 (NM_000101.2) was cloned into pcDNA3.1/Zeo (+) (Invitrogen), and human NOXA1 (AY255769.1) and human NOXO1 (AB097667) were cloned into the bi-cistronic pVITRO1-neo-mcs plasmid (Invivogen).
Cells were transfected by using the FuGENE 6 method. Cells stably expressing functional human Nox1 (hNOX1 T-REx™-CHO) were obtained by co-transfecting T-REx™-CHO cells with human Nox1, human p22, human NOXA1 and human NOXO1. Cells stably expressing functional human Nox2 (hNOX2 T-REx™-CHO) were obtained by co-transfecting T-REx™-CHO cells with human nox2, human p22 and human cofactors. Cells stably expressing functional human Nox5 (hNOX5 T-REx™-CHO) were obtained by transfecting T-REx™-CHO cells with human Nox5. Co-transfected cells were selected with the appropriate antibiotics for 10 days. For the selection, hygromycin and G418 were used at 2 mg/ml and zeocin at 0.1 mg/ml. For the establishment of each stably transfected cell line, a pool of antibiotic-resistant cells was generated. Cells were cloned by limiting dilution. Several clones were established and investigated for ROS production upon tetracycline-induced hNox expression using a cellular AR assay. The expression of NOXes was done with tetracycline (1 μg/ml) during 24 h prior to the assay.
as §2, §3
Antagonist activity of compounds was measured in the presence of increasing concentrations ranging from 1 nM to 100 μM. […]

In the case of `O=c1c2c(-c3ccccc3F)n(Cc3cccnc3)c(=O)cc2[nH]n1-c1ccccc1Cl` [(17), 2-(2-chlorophenyl)-4-(2-fluorophenyl)-5-(pyridin-3-ylmethyl)-1H-pyrazolo[4,3-c]pyridine-3,6(2H,5H)-dione], the Ki (as a rule, the dissociation constant of the complex between target and ligand, obtained from inhibition or displacement) at human Nox4 came out at 88 nM; on human Nox2 it was 602 nM.

In the case of `O=c1c2c(-c3ccc(Cl)cc3)n(Cc3ccncc3)c(=O)cc2[nH]n1-c1ccccc1Cl` [(18), 2-(2-chlorophenyl)-4-(4-chlorophenyl)-5-(pyridin-4-ylmethyl)-1H-pyrazolo[4,3-c]pyridine-3,6(2H,5H)-dione], the Ki at human Nox4 is 89 nM; at human Nox2 it was 810 nM.

On to `O=c1c2c(-c3ccc(Cl)cc3F)n(Cc3ccncc3)c(=O)cc2[nH]n1-c1ccccc1Cl` [(19), 4-(4-chloro-2-fluorophenyl)-2-(2-chlorophenyl)-5-(pyridin-4-ylmethyl)-1H-pyrazolo[4,3-c]pyridine-3,6(2H,5H)-dione], for which the Ki at human Nox4 is 91 nM; at human Nox2, 640 nM.

Turning to `COc1ccc(-c2c3c(=O)n(-c4ccccc4Cl)[nH]c3cc(=O)n2Cc2cccnc2)c(F)c1` [(21), 2-(2-chlorophenyl)-4-(2-fluoro-4-methoxyphenyl)-5-(pyridin-3-ylmethyl)-1H-pyrazolo[4,3-c]pyridine-3,6(2H,5H)-dione], the inhibition constant (Ki) at human Nox4 was 96 nM; on human Nox2 it was 555 nM.

Consider `COc1ccc(-c2c3c(=O)n(-c4ccccc4OC)[nH]c3cc(=O)n2Cc2ccn(C)n2)c(F)c1` [(22), 4-(2-fluoro-4-methoxyphenyl)-2-(2-methoxyphenyl)-5-[(1-methyl-1H-pyrazol-3-yl)methyl]-1H-pyrazolo[4,3-c]pyridine-3,6(2H,5H)-dione], for which the Ki turned out to be 98 nM at human Nox4 and 925 nM on human Nox2.

For `O=c1c2c(-c3ccc(Cl)cc3)n(Cc3cccnc3)c(=O)cc2[nH]n1-c1ccccc1Cl` [(25), 2-(2-chlorophenyl)-4-(4-chlorophenyl)-5-(pyridin-3-ylmethyl)-1H-pyrazolo[4,3-c]pyridine-3,6(2H,5H)-dione], the Ki amounted to 100 nM at human Nox4 and 2180 nM on human Nox2.

In the case of `COc1cc(Cn2c(-c3ccc(Cl)cc3F)c3c(=O)n(-c4ccccc4Cl)[nH]c3cc2=O)ccn1` [(26), 4-(4-chloro-2-fluorophenyl)-2-(2-chlorophenyl)-5-[(2-methoxypyridin-4-yl)methyl]-1H-pyrazolo[4,3-c]pyridine-3,6(2H,5H)-dione], the Ki on human Nox4 is 105 nM; on human Nox2, 565 nM.

Turning to `COc1ccc(-c2c3c(=O)n(-c4ccccc4Cl)[nH]c3cc(=O)n2Cc2ccncc2)c(F)c1` [(27), 2-(2-chlorophenyl)-4-(2-fluoro-4-methoxyphenyl)-5-(pyridin-4-ylmethyl)-1H-pyrazolo[4,3-c]pyridine-3,6(2H,5H)-dione], the inhibition constant Ki is 108 nM at human Nox4 and 590 nM at human Nox2.

For `O=c1c2c(-c3ccccc3F)n(Cc3ccncc3)c(=O)cc2[nH]n1-c1ccccc1Cl` [(29), 2-(2-chlorophenyl)-4-(2-fluorophenyl)-5-(pyridin-4-ylmethyl)-1H-pyrazolo[4,3-c]pyridine-3,6(2H,5H)-dione], the values for the Ki on human Nox4 and at human Nox2 were 111 nM and 655 nM, respectively.

Take `Cc1c2c(=O)n(-c3ccccc3Cl)[nH]c2cc(=O)n1Cc1ccn(C)n1` [(30), 2-(2-chlorophenyl)-4-methyl-5-[(1-methyl-1H-pyrazol-3-yl)methyl]-1H-pyrazolo[4,3-c]pyridine-3,6(2H,5H)-dione]: the Ki at human Nox4 was found to be 111 nM; on human Nox2, 1060 nM.

For `CNc1cccc(-c2c3c(=O)n(-c4ccccc4Cl)[nH]c3cc(=O)n2C)c1` [(32), 2-(2-chlorophenyl)-5-methyl-4-[3-(methylamino)phenyl]-1H-pyrazolo[4,3-c]pyridine-3,6(2H,5H)-dione], the Ki on human Nox4 stood at 114 nM; on human Nox2, 1830 nM.

As to `O=c1c2c(-c3ccccc3F)n(Cc3ccccn3)c(=O)cc2[nH]n1-c1ccccc1Cl` [(34), 2-(2-chlorophenyl)-4-(2-fluorophenyl)-5-(pyridin-2-ylmethyl)-1H-pyrazolo[4,3-c]pyridine-3,6(2H,5H)-dione], the Ki on human Nox4 was found to be 119 nM; at human Nox2, 640 nM.

For the origin of these results see patent US20140323500A1, “NADPH OXIDASE 4 INHIBITORS AND USE THEREOF” (GENKYOTEX SA, priority 2011, published 2014).
